According to US11878965B2, “Inhibitors of peptidylarginine deiminases” (Gilead Sciences, Inc., priority 2020, dated 2024):

Molecular target: human PAD4 (Homo sapiens (Human), UniProt Q9UM07)
Assay: In Vitro PAD4 BAEE Biochemical Assay
Settings: human PAD4, BAEE substrate; 5 nM PAD4, 2 mM calcium chloride, 3 mM BAEE; geometric mean of multiple experiments
Procedure: The PCR product was ligated into linearized pET-SUMO vector (Invitrogen, Carlsbad, CA), which is part of the Champion™ pET SUMO Protein Expression System. After sequence verification for the correct orientation, the pET-SUMO-hPAD4 expression plasmid was transformed into BL21(DE3) cells.
E. Coli BL21(DE3) cells were inoculated in LB medium with kanamycin at 37° C. until A600 nm reached about 0.5. Protein expression was induced by addition of 0.5 mM IPTG (final) and continued overnight at 16° C. at 220 rpm.
Cells were harvested by centrifugation at 5000 rpm for 10 minutes at 4° C. The pellet was resuspended in 300 ml lysis buffer (20 mM Tris-HCl, pH 8.0, 1 mM EDTA, 500 mM NaCl, 1 mM (tris(2-carboxyethyl)phosphine) (TCEP), 10% glycerol, and 1% Triton X100 and EDTA free protease inhibitor) and lysed by 3× passage through a microfluidizer (Microfluidics, Newton, MA) at 18,000 psi. The cell lysate was clarified by centrifugation at 30,000 rpm for 60 minutes at 4° C. The supernatant was applied to a 5 ml Ni-HP (GE HealthCare Cat #17524701) column preequilibrated in Ni-A buffer (20 mM Tris-HCl, pH 8.0, 20 mM Imidazole, 1 mM TCEP, 10% glycerol, and 400 mM NaCl). Bound protein was eluted with a 0-100% linear gradient of 100 mL Ni-B buffer (Ni A buffer+0.5 M Imidazole).
The His-Sumo tag was cleaved using sumo protease (Thermo Fisher Cat #: 12588018) while dialyzing in buffer (20 mM Tris-HCl, pH 8.0, 1 mM EDTA, 500 mM NaCl, 1 mM TCEP, 10% glycerol). The protein was then reloaded onto a Ni-HP column for a reverse purification step and recovered in flow through fraction. The protein with His-Sumo tag removed was then polished using a 16/60 Superdex-200 gel filtration column with gel filtration buffer (20 mM Tris pH 8.0, NaCl 400 mM and 1 mM TCEP). The fractions containing the protein were pulled and frozen at −80° C.
In Vitro PAD4 BAEE Biochemical Assay
The enzymatic activity of human PAD4 was monitored in a biochemical assay in the presence or absence of compounds using the small peptidyl arginine mimic BAEE (Nα-Benzoyl-L-arginine ethyl ester hydrochloride) as substrate. PAD4 activity led to deimination of BAEE and release of ammonia. Levels of ammonia were monitored by using an amine coupling reaction and were indicative of PAD4 enzymatic activity.
One hundred nanoliters of test compounds dissolved in DMSO at various concentrations were dispensed into a 384-well black OptiPlate using a Labcyte Echo instrument. Ten microliters of a solution of recombinant PAD4 and calcium chloride diluted in PAD4 assay buffer (50 mM MOPS [3-(N-morpholino) propanesulfonic acid], pH 7.6; 50 mM sodium chloride; 0.05% Tween-20; 2 mM dithiothreitol) was added to the compound-containing plate and was incubated for 30 minutes at 25° C. Ten microliters of a solution of BAEE (Sigma-Aldrich #B4500) diluted in PAD4 assay buffer was then added to start the reaction. Final concentrations were 5 nM PAD4, 2 mM calcium chloride, and 3 mM BAEE. The reaction mixture was incubated at 25° C. for 2 hours and was stopped with the addition of 10 microliters of a solution of 75 mM EDTA (Ethylenediaminetetraacetic acid) in PAD4 assay buffer. Thirty microliters of detection solution (5 mM o-phthalaldehyde, 50 mM MOPS [3-(N-morpholino) propanesulfonic acid], pH 7.6; 50 mM sodium chloride; 0.05% Tween-20; 5 mM dithiothreitol) was then added and the reaction was incubated for 1 hour at 25° C. The level of fluorescent thiol-substituted isoindole resulting from the reaction of ammonia, o-phthalaldehyde, and dithiothreitol was measured on an Envision plate reader (PerkinElmer) with 405 nm excitation and 535 nm emission.

Chain of human PAD4 (Q9UM07 2-663): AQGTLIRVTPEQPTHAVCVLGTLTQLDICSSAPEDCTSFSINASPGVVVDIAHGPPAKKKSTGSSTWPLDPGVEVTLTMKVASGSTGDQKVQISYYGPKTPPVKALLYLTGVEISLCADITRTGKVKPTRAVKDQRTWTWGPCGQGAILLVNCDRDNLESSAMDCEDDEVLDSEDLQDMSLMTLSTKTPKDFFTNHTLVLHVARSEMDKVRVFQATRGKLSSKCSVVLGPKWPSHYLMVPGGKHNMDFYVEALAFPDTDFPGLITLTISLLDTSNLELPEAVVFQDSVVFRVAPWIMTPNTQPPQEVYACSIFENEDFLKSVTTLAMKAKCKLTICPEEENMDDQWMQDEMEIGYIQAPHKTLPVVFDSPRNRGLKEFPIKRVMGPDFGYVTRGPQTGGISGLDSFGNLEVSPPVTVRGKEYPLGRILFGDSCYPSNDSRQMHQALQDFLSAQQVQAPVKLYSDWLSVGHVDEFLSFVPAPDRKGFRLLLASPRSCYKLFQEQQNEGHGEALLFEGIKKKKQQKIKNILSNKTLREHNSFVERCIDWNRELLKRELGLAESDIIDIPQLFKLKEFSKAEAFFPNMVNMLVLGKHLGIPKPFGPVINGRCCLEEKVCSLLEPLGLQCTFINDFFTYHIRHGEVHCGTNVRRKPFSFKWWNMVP

Row | SMILES | IC50 [nM]
1 | COc1cc(C(=O)N2CCC[C@@H](N)C2)cc2nc(-c3cc4ccc(N(CC(F)(F)F)S(C)(=O)=O)nc4n3CC3CC3)n(C)c12 [Example 16, (R)-N-(2-(5-(3-aminopiperidine-1-carbonyl)-7-methoxy-1-methyl-1H-benzo[d]imidazol-2-yl)-1-(cyclopropylmethyl)-1H-pyrrolo [2,3-b]pyridin-6-yl)-N-(2,2,2-trifluoroethyl) methanesulfonamide] | 316
2 | COc1cc(C(=O)N2CCC[C@@H](N)C2)cc2nc(-c3cc4ccc(N(C5CC5)S(C)(=O)=O)nc4n3CC3CC3)n(C)c12 [Example 17, (R)-N-(2-(5-(3-aminopiperidine-1-carbonyl)-7-methoxy-1-methyl-1H-benzo[d]imidazol-2-yl)-1-(cyclopropylmethyl)-1H-pyrrolo [2,3-b]pyridin-6-yl)-N-cyclopropylmethanesulfonamide] | 88.5
3 | COc1cc(C(=O)N2CCC[C@@H](N)C2)cc2nc(-c3cc4ccc(N(C(F)F)S(C)(=O)=O)nc4n3CC3CC3)n(C)c12 [Example 18, (R)-N-(2-(5-(3-aminopiperidine-1-carbonyl)-7-methoxy-1-methyl-1H-benzo[d]imidazol-2-yl)-1-(cyclopropylmethyl)-1H-pyrrolo[2,3-b]pyridin-6-yl)-N-(difluoromethyl) methanesulfonamide] | 83
4 | COc1cc(C(=O)N2CCC[C@@H](N)C2)cc2nc(-c3cc4ccc(N(CC(F)F)S(C)(=O)=O)nc4n3CC3CC3)n(C)c12 [Example 19, (R)-N-(2-(5-(3-aminopiperidine-1-carbonyl)-7-methoxy-1-methyl-1H-benzo[d]imidazol-2-yl)-1-(cyclopropylmethyl)-1H-pyrrolo [2,3-b]pyridin-6-yl)-N-(2,2-difluoroethyl) methanesulfonamide] | 181
5 | COc1cc(C(=O)N2CCC[C@@H](N)C2)cc2nc(-c3cc4ccc(N(CC5CC5)S(C)(=O)=O)nc4n3CC3CC3)n(C)c12 [Example 20, (R)-N-(2-(5-(3-aminopiperidine-1-carbonyl)-7-methoxy-1-methyl-1H-benzo[d]imidazol-2-yl)-1-(cyclopropylmethyl)-1H-pyrrolo [2,3-b]pyridin-6-yl)-N-(cyclopropylmethyl) methanesulfonamide] | 50000
6 | COc1cc(C(=O)N2CCC[C@@H](N)C2)cc2nc(-c3cc4ccc(N(CC5CCC5)S(C)(=O)=O)nc4n3CC3CC3)n(C)c12 [Example 21, (R)-N-(2-(5-(3-aminopiperidine-1-carbonyl)-7-methoxy-1-methyl-1H-benzo[d]imidazol-2-yl)-1-(cyclopropylmethyl)-1H-pyrrolo[2,3-b]pyridin-6-yl)-N-(cyclobutylmethyl) methanesulfonamide] | 50000
7 | COc1cc(C(=O)N2CCC[C@@H](N)C2)cc2nc(-c3cc4ccc(N(C)S(C)(=O)=O)nc4n3CC3CC3)n(CC3CC3)c12 [Example 23, (R)-N-(2-(5-(3-aminopiperidine-1-carbonyl)-1-(cyclopropylmethyl)-7-methoxy-1H-benzo[d]imidazol-2-yl)-1-(cyclopropylmethyl)-1H-pyrrolo[2,3-b]pyridin-6-yl)-N-methylmethanesulfonamide] | 125
8 | COc1cc(C(=O)N2CCC[C@@H](N)[C@H]2C)cc2nc(-c3cc4ccc(N(C)S(C)(=O)=O)nc4n3CC3CC3)n(CC3CC3)c12 [Example 24, N-(2-(5-((2R,3R)-3-amino-2-methylpiperidine-1-carbonyl)-1-(cyclopropylmethyl)-7-methoxy-1H-benzo[d]imidazol-2-yl)-1-(cyclopropylmethyl)-1H-pyrrolo [2,3-b]pyridin-6-yl)-N-methylmethanesulfonamide] | 124
9 | CCN(c1ccc2cc(-c3nc4cc(C(=O)N5CCC[C@@H](N)C5)cc(OC)c4n3C)n(CC3CC3)c2n1)S(=O)(=O)C1CC1 [Example 25, (R)-N-(2-(5-(3-aminopiperidine-1-carbonyl)-7-methoxy-1-methyl-1H-benzo[d]imidazol-2-yl)-1-(cyclopropylmethyl)-1H-pyrrolo [2,3-b]pyridin-6-yl)-N-ethylcyclopropanesulfonamide] | 82
10 | COc1cc(C(=O)N2CCC[C@@H](N)C2)cc2nc(-c3cc4ccc(N(C5CC5)S(=O)(=O)C5CC5)nc4n3CC3CC3)n(C)c12 [Example 26, (R)-N-(2-(5-(3-aminopiperidine-1-carbonyl)-7-methoxy-1-methyl-1H-benzo[d]imidazol-2-yl)-1-(cyclopropylmethyl)-1H-pyrrolo [2,3-b]pyridin-6-yl)-N-cyclopropylcyclo-propanesulfonamide] | 106
11 | COc1cc(C(=O)N2CCC[C@@H](N)C2)cc2nc(-c3cc4ccc(N(C(F)F)S(=O)(=O)C5CC5)nc4n3CC3CC3)n(C)c12 [Example 27, (R)-N-(2-(5-(3-aminopiperidine-1-carbonyl)-7-methoxy-1-methyl-1H-benzo[d]imidazol-2-yl)-1-(cyclopropylmethyl)-1H-pyrrolo [2,3-b]pyridin-6-yl)-N-(difluoromethyl) cyclopropanesulfonamide] | 92.7
12 | CCN(c1ccc2cc(-c3nc4cc(C(=O)N5CCC[C@@H](N)[C@H]5C)cc(OC)c4n3C)n(CC3CC3)c2n1)S(C)(=O)=O [Example 28, N-(2-(5-((2R,3R)-3-amino-2-methylpiperidine-1-carbonyl)-7-methoxy-1-methyl-1H-benzo[d]imidazol-2-yl)-1-(cyclopropylmethyl)-1H-pyrrolo [2,3-b]pyridin-6-yl)-N-ethylmethanesulfonamide] | 98.6
13 | CCN(c1ccc2cc(-c3nc4cc(C(=O)N5CC(N)CCC5C)cc(OC)c4n3C)n(CC3CC3)c2n1)S(C)(=O)=O (stereo not shown) [Example 29, N-(2-(5-(5-amino-2-methylpiperidine-1-carbonyl)-7-methoxy-1-methyl-1H-benzo[d]imidazol-2-yl)-1-(cyclopropylmethyl)-1H-pyrrolo [2,3-b]pyridin-6-yl)-N-ethylmethanesulfonamide] | 173
14 | CCN(c1ccc2cc(-c3nc4cc(C(=O)N5C[C@H](N)CC[C@@H]5C)cc(OC)c4n3C)n(CC3CC3)c2n1)S(C)(=O)=O [Example 30, N-(2-(5-((2S,5R)-5-amino-2-methylpiperidine-1-carbonyl)-7-methoxy-1-methyl-1H-benzo[d]imidazol-2-yl)-1-(cyclopropylmethyl)-1H-pyrrolo [2,3-b]pyridin-6-yl)-N-ethylmethanesulfonamide] | 88.2
15 | COc1cc(C(=O)N2CCC[C@@H](N)[C@H]2C)cc2nc(-c3cc4ccc(N(C5CC5)S(C)(=O)=O)nc4n3CC3CC3)n(C)c12 [Example 31, N-(2-(5-((2R,3R)-3-amino-2-methylpiperidine-1-carbonyl)-7-methoxy-1-methyl-1H-benzo[d]imidazol-2-yl)-1-(cyclopropylmethyl)-1H-pyrrolo [2,3-b]pyridin-6-yl)-N-cyclopropylmethanesulfonamide] | 110
16 | COc1cc(C(=O)N2CCC[C@@H](N)[C@H]2C)cc2nc(-c3cc4ccc(N(C(F)F)S(C)(=O)=O)nc4n3CC3CC3)n(C)c12 [Example 33, N-(2-(5-((2R,3R)-3-amino-2-methylpiperidine-1-carbonyl)-7-methoxy-1-methyl-1H-benzo[d]imidazol-2-yl)-1-(cyclopropylmethyl)-1H-pyrrolo [2,3-b]pyridin-6-yl)-N-(difluoromethyl) methanesulfonamide] | 77.3
